Test [1] has as its system patient-derived tumor with BRCA1 germline mutation 2080delA. The test is described as follows: Patient-derived BRCA1 2080delA breast tumor xenograft growth. Format: in vivo, human. To be noted: untreated patient; Compound A 30 mg/kg/day, Compound B 50 mg/kg/day. The source says:
(§1) FIGS. 6G and 6H are graphs showing the relative tumor volume (RTV) over time of tumors from breast cancer tissues from two patients, one with a 185delAG germline mutation (6G) and the other one with a 2080delA germline mutation (6H), propagated as subcutaneous implants in nude mice. Tumors were allowed to grow to a size of 5 mm when mice were randomized to treatments with either vehicle control (squares), Compound A (upside-down triangles), Compound B (triangles), or their combination (diamonds) (n=6 for each cohort, same dosing as in 6F).
(§2) All animal experiments were conducted in accordance with IACUC-approved protocols at Beth Israel Deaconess Medical Center, Boston, and at the University of Vall d'Hebron, Barcelona, Spain. […] The floxed or wild type status of Brca1, the presence of the MMTV-Cre transgene and the p53 heterozygosity were determined by PCR. […] When tumormetrics were performed, the length and width of the tumor was determined using calipers, and the tumor volume was determined (width^2×length/2). Tumor volume was used as a measure of growth and was recorded as ratio to tumor volume at diagnosis. Tumor doubling times were calculated using the functions of the best fit curves for all data points in each treatment modality. […]
For orientation: In xenograft studies the graft and the host belong to different species.

Test [2] relates to BRCA1-deleted mammary tumors of MMTV-CreBRCA1^f/fp53+/− mice. The experiment in a line: 18FDG PET-CT scanning of tumor-bearing mice. Format: in vivo, mouse. The conditions noted are these: for FDG-uptake of treated tumors: Compound B-treated versus Compound A or combination. The procedure: All animal experiments were conducted in accordance with IACUC-approved protocols at Beth Israel Deaconess Medical Center, Boston, and at the University of Vall d'Hebron, Barcelona, Spain. Female MMTV-CreBRCA1^f/fp53+/− mice were obtained by breeding BRCA1 conditional knockout mice from the NIH repository (01XC8, strain C57BL/6) (Xu et al. Nat. Genet., 22: 37-43, 1999); with MMTV-Cre (Jackson Laboratory B6129-TgN(MMTV-Cre)4Mam) (Wagner et al. Nucleic Acids Res., 25: 4323-4330, 1997) and p53 knockout (Taconic Farms, P53N12-M, C57BL/6) (Donehower et al. Nature, 356: 215-221, 1992). At the time of the study, mice had been inbred for 4 years (>7 generations). The floxed or wild type status of Brca1, the presence of the MMTV-Cre transgene and the p53 heterozygosity were determined by PCR. Mice were examined for the occurrence of tumors twice weekly. When tumormetrics were performed, the length and width of the tumor was determined using calipers, and the tumor volume was determined (width^2×length/2). Tumor volume was used as a measure of growth and was recorded as ratio to tumor volume at diagnosis. Tumor doubling times were calculated using the functions of the best fit curves for all data points in each treatment modality. 5-(2,6-dimorpholinopyrimidin-4-yl)-4-(trifluoromethyl)pyridin-2-amine (Compound A) was resuspended in 5% Methylcellulose solution (Fluka) and administered via oral gavage at 50 mg/kg/day or 30 mg/kg/day. 4-[[3-[4-(cyclopropanecarbonyl)piperazine-1-carbonyl]-4-fluorophenyl]methyl]-2H-phthalazin-1-one (Compound B) was resuspended for intraperitoneal administration as described (Rottenberg et al. Proc. Natl. Acad. Sci. USA., 105: 17079-17084, 2008) and dosed at 50 mg/kg/day. For patient-derived tumor grafts consent for tumor use was obtained from patients under a protocol approved by the Vall d'Hebron Hospital Clinical Investigation Ethical Committee. Tumors were subcutaneously implanted in 6-week-old female HsdCpb:NMRI-Foxn1nu mice (Harlan Laboratories, Italy) Animals were supplemented with 1 μM estradiol (Sigma) in the drinking water. After tumor graft growth, tumor tissue was re-implanted into recipient mice, which were randomized upon implant growth.
0.3 to 0.4 mCi of fluorine-18-deoxyglucose were injected intravenously through the retroorbital vein of the anesthetized mouse. After a “washout” period of 1 hour the mouse was imaged on a NanoPET/CT (Bioscan/Mediso) scanner. The NanoPET/CT is a high-resolution small-animal multimodality scanner consisting of 12 lutetium yttrium oxyorthosilicate (LYSO) detector blocks. The blocks comprise a total of 39,780 crystals each with a dimension of 1.2×1.2×13 mm^3.
Images were acquired in three dimensions. The mice remained supine and maintained their position throughout the procedure. First, a CT scan was performed and second, a whole-body ^18F-FDG PET emission scan was acquired covering the same area as the CT scan. Counts per minute (cpm) were obtained, converted to mCi, and values were normalized for ROI volume and injected dose. In order to correct for metabolic variability between exams and to determine tumor-specific uptake changes, FDG-uptake rates were corrected for cardiac FDG-uptake (μCi injected/voxels^tumor)/(μCi/μCi injected/voxels^heart). For studies involving repeat scanning, the change in tumor-specific FDG-uptake was determined in percent (1−(FDG-uptake^post/FDG-uptake^pre)×100) Animals were housed in the Longwood SAIF satellite animal facility between scans.

The test system of test [3] is patient-derived tumor with BRCA1 germline mutation 185delAG. The experiment in a line: Patient-derived BRCA1 185delAG breast tumor xenograft growth. Type of test: in vivo, human. The conditions noted are these: tumor resistant to standard chemotherapy and Compound B; Compound A 30 mg/kg/day, Compound B 50 mg/kg/day.
Source text: as §1, §2

The mark [4] stands for this setting: after 2 weeks of continued treatment.
Setting [5] is: within 48 hours of instituting treatment.

These results are taken from patent US20140235630A1, “COMPOSITIONS AND METHODS FOR THE TREATMENT OF PROLIFERATIVE DISEASES” (Beth Israel Deaconess Medical Center, Inc., priority 2011, published 2014).

Where “and” joins values, the source holds several entries; their conditions need not be identical. Equal values may be shown once.

As to `Nc1cc(C(F)(F)F)c(-c2cc(N3CCOCC3)nc(N3CCOCC3)n2)cn1` [Compound A, 5-(2,6-dimorpholinopyrimidin-4-yl)-4-(trifluoromethyl)pyridin-2-amine], the “sensitivity of patient-derived tumor (relative tumor volume)” value in test [1] was “exquisite sensitivity”. Further, the “FDG-uptake of treated tumors” value in test [2] is “strongly reduced FDG-uptake”. In test [2] (setting [4]), the “median decrease in FDG-uptake” value is on record as 54% and the “range of decrease in FDG-uptake” value is recorded as 45.5-70.5%. The “decrease in 18FDG-uptake, individual tumors of one mouse” value in test [2] (within 48 hours after start, 50 mg/kg/day by gavage, four simultaneous tumors, 50 mg/kg/day) is 45% and 64% (2×) and 56%. In test [2] (setting [5]), the “median decrease in FDG-uptake” value was determined as 46.7% and the “range of decrease in FDG-uptake” value is 38.1-92.3. For the same compound, the “growth of patient-derived tumor (relative tumor volume)” value in test [3] was “modestly attenuated”.

In the case of `O=C(c1cc(Cc2n[nH]c(=O)c3ccccc23)ccc1F)N1CCN(C(=O)C2CC2)CC1` [Compound B, 4-[[3-[4-(cyclopropanecarbonyl)piperazine-1-carbonyl]-4-fluorophenyl]methyl]-2H-phthalazin-1-one, reference compound], the “sensitivity of patient-derived tumor (relative tumor volume)” value in test [1] was “exquisite sensitivity”. Also, the “FDG-uptake of treated tumors” value in test [2] is reported as “increased FDG-uptake”. Moreover, the “growth of patient-derived tumor (relative tumor volume)” value in test [3] is given as “modestly attenuated”.
